Like-named read-outs stand apart in the source and are kept apart here.
Key:
[1] = system: H. contortus xL3s; assay: H. contortus xL3 motility dose-response assay; assay type: cell-based, Haemonchus contortus; conditions: for IC50: read-out: Worm motility IC50 ± SD, H. contortus xL3s; for fold increased activity compared to UMW-9729, H. contortus larvae: ratio of xL3 motility IC50 to parent UMW-9729
Description: Immediately prior to use in assays, H. contortus L3s were exsheathed via exposure to 0.15 % (v/v) sodium hypochlorite for 20 min at 38 °C ([Preston et al., 2015]), achieving an exsheathment rate of 90 %. The larvae were then immediately washed five times with 50 mL of sterile physiological saline (pH 7.0) by centrifugation at 2000×g (5 min) and resuspended (at a concentration of 300 xL3s per 50 μL) in sterile (autoclaved) lysogeny broth (LB; cf. [Bertani, 1951]; [Taki et al., 2021b]), supplemented with final concentrations of 100 IU/mL of penicillin, 100 μg/mL of streptomycin and 0.25 μg/mL of amphotericin B (Fungizone®, cat. No. 15240-062, Gibco, Thermo Fisher Scientific, Waltham, MA, USA); this supplemented LB was designated LB*.
The dose-response assay for H. contortus followed a well-established protocol ([Taki et al., 2021b]); it was employed to evaluate the potency of hit compounds against this nematode. Test compounds were assessed individually for an effect on the motility of xL3s (10-point, 2-fold serial dilution in LB*, 40 μM–[…]). […] A solution of LB* was used as a negative control. The test compounds and positive control compounds (monepantel and moxidectin) were arrayed in triplicate across individual flat-bottom 96-well microplates, with six wells on each plate containing the negative control. Added to each well were 300 xL3s of H. contortus in 50 μL of LB* to give a final volume of 100 μL. Plates were then placed in a CO2 incubator (10 % (v/v) CO2, 38 °C, >90 % humidity; Forma, model no. 311, Thermo Fisher Scientific, USA). […] Over a period of 15 min, disturbance of an infrared beam in individual wells was recorded as an ‘activity count’. Raw ‘activity counts’ for individual wells were normalised to the negative-controls. The compound concentrations were log10-transformed and fitted using a variable slope four-parameter equation, using the ordinary least squares fit model, employing Prism (v.9.1.0 GraphPad Software, San Diego, CA, USA). Larval development was established at 168 h of incubation with compound, as described previously ([Preston et al., 2015]). The phenotypes of larvae were examined using a microscope ([Preston et al., 2015]) and recorded.

[2] = system: C. elegans young adults; assay: C. elegans young adult motility dose-response assay; assay type: cell-based, Caenorhabditis elegans; conditions: for IC50: read-out: Worm motility IC50 ± SD, C. elegans young adults
Description: The eggs were then washed five times with 15 mL of sterile M9 buffer (centrifugation at 500×g, 2 min). […] were collected from plates and washed twice with sterile M9 buffer by centrifugation (500×g, 2 min) to remove E. coli OP50, and then resuspended to a concentration of 100 larvae per 50 μL in sterile (autoclaved) LB*. The dose-response assay for C. elegans followed a well-established protocol ([Taki et al., 2021a]) and was employed to evaluate the potency of hit compounds against this nematode. […] Two compounds, monepantel (ZolvixTM; Elanco, Australia) and moxidectin ([…], France) were used as positive controls and prepared in the same manner as the test compounds. […] The test compounds and positive control compounds were arrayed in triplicate across individual flat-bottom 96-well microplates (cat. no. 3596; Corning, Corning, NY, USA), with six wells on each plate containing the negative control. Added to each well were 100 C. elegans in 50 μL of LB* to give a final volume of 100 μL. Plates were then placed in an incubator ([…], model no. IMP180, Thermo Fisher Scientific, USA) at 20 °C for 40 h. […] Over 15 min, disturbance of an infrared beam in individual wells was recorded as an 'activity count'. Raw 'activity counts' for each well were normalised to the negative controls. The compound concentrations were log10-transformed and fitted using a variable slope four-parameter equation, using the ordinary least squares fit model, employing the program Prism (v.9.1.0 GraphPad Software, San Diego, CA, USA).

[3] = system: adult females of Haemonchus contortus; assay: Motility of adult female H. contortus in vitro; assay type: cell-based; conditions: 40 μM
Description: Adult H. contortus were collected from the abomasa of sheep infected for 10 weeks, washed extensively with phosphate-buffered saline (PBS, pH 7.4) and subsequently in RPMI 1640 media supplemented with final concentrations of 2 mM L-glutamine, 100 IU/mL of penicillin, 100 μg/mL of streptomycin and 0.25 μg/mL of amphotericin B (Thermo Fisher Scientific, Scoresby, VIC, Australia; this supplemented RPMI was designated RPMI*). Female and male worms were collected and separated immediately prior to compound testing.
The activity of UMW-9729 and six derivatives (12, 14, 15, 16, 18 and 25) was assessed on adult female specimens of H. contortus in an established assay ([Taki et al., 2020]). The compound was added in triplicate to the wells of a 24-well plate (cat. no. 3524; Corning, USA) at a concentration of 40 μM in 500 μL of RPMI* (RPMI supplemented with final concentrations of 2 mM L-glutamine, 100 IU/mL of penicillin, 100 μg/mL of streptomycin and 0.25 μg/mL of amphotericin B; Thermo Fisher Scientific, Scoresby, VIC, Australia). Two positive-control compounds, monepantel and moxidectin, and a negative control containing 1 % (v/v) DMSO only, were included in triplicates on the same plate. Three adult females were added to each of the triplicate wells containing either the test compound or the controls and placed in a CO2 incubator (10 % (v/v) CO2, 40 °C, >90 % relative humidity) for 1 day. A video recording (30 s) of each well was taken at 3 h, 6 h, 12 h and 24 h during the total incubation period to assess the reduction in worm motility, which was scored as 3 (“good”), 2 (“low”), 1 (“very low”) or 0 (“no movement”; cf. [Taki et al., 2020]). For each test or control compound, the motility scores for each of the triplicate wells were calculated, normalised with reference to the negative control (100 % motility) and recorded as a percentage.

[4] = Haemonchus contortus, 90 h, xL3s, 90 h incubation (table title), three independent assays in triplicate
[5] = Caenorhabditis elegans, 40 h, young adults, 40 h incubation, three independent assays in triplicate
[6] = xL3s, 90 h incubation (table title), three independent assays in triplicate
[7] = young adults, 40 h incubation, three independent assays in triplicate
[8] = 24 h of incubation, normalised to negative control

Row | SMILES | IC50 [1, 4] [µM] | IC50 [2, 5] [µM] | also measured
1 | FC(F)(F)c1ccccc1C#Cc1ccc(-c2ccn[nH]2)cc1 [Compound 7] | > 40 | > 40 | 
2 | FC(F)(F)c1cccc(C#Cc2ccc(-c3ccn[nH]3)cc2)c1 [Compound 12] | 8.2 ± 1.9 | 12 ± 7 | reduction of worm motility, adult females of H. contortus [3, 8]: 29%
3 | FC(F)(F)Oc1cccc(C#Cc2ccc(-c3ccn[nH]3)cc2)c1 [Compound 13] | > 40 | > 40 | 
4 | Fc1cccc(C#Cc2ccc(-c3ccn[nH]3)cc2)c1 [Compound 14] | 5.2 ± 0.9 | 9 | reduction of worm motility, adult females of H. contortus [3, 8]: 29%; IC50 [2, 7]: 8 ± 1.8 µM
5 | Clc1cccc(C#Cc2ccc(-c3ccn[nH]3)cc2)c1 [Compound 15] | > 40 | 8.2 ± 7.8 | reduction of worm motility, adult females of H. contortus [3, 8]: 23%; Worm motility IC50 ± SD, H. contortus xL3s [1, 6]: loss of activity; fold increased activity compared to UMW-9729, C. elegans ([2]; ratio of motility IC50 to parent UMW-9729): ~2 fold
6 | Clc1ccc(C#Cc2ccc(-c3ccn[nH]3)cc2)cc1 [Compound 20] | 3.7 ± 1.1 | > 40 | 
7 | N#Cc1ccc(C#Cc2ccc(-c3ccn[nH]3)cc2)cc1 [Compound 21] | 6.7 ± 4.2 | > 40 | 
8 | C[Si](C)(C)C#Cc1ccc(-c2ccn[nH]2)cc1 [Compound 23] |  |  | IC50 ([1]; Haemonchus contortus, 90 h): > 40 µM; Worm motility IC50 ± SD, H. contortus xL3s [1, 6]: complete loss of activity; IC50 ([2]; Caenorhabditis elegans, 40 h): > 40 µM
9 | Cn1nccc1-c1ccc(C#Cc2ccccc2)cc1 [Compound 25] |  |  | reduction of worm motility, adult females of H. contortus ([3]; 3 h time point): did not display a reduction in motility; reduction of worm motility, adult females of H. contortus ([3]; 6 h time point): did not display a reduction in motility; reduction of worm motility, adult females of H. contortus ([3]; 12 h time point): did not display a reduction in motility; fold increased activity compared to UMW-9729, H. contortus larvae [1]: 3 fold; Maximum motility inhibition (MMI), H. contortus xL3s ([1]; xL3s, 90 h incubation (table title)): 73%; IC50 [1, 6]: 1.9 ± 0.14 µM; Worm motility IC50 ± SD, C. elegans young adults [2, 7]: inactive; IC50 [2, 7]: > 40 µM
10 | C#Cc1ccc(-c2ccn[nH]2)cc1 [Compound 27, 5-(4-ethynylphenyl)-1H-pyrazole] | > 40 | > 40 | Worm motility IC50 ± SD, H. contortus xL3s [1, 6]: complete loss of activity
11 | c1ccc(CCc2ccc(-c3ccn[nH]3)cc2)cc1 [Compound 28] | 16 ± 4.9 | > 40 | 
12 | C[C@](C#N)(COc1cc(C#N)ccc1C(F)(F)F)NC(=O)c1ccc(SC(F)(F)F)cc1 [Monepantel, monepantel, reference compound] | 0.6 ± 0.2 | 0.03 ± 0.01 | 
13 | CO/N=C1\C[C@]2(C[C@@H]3C[C@@H](C/C=C(\C)C[C@@H](C)/C=C/C=C4\CO[C@@H]5[C@H](O)C(C)=C[C@@H](C(=O)O3)[C@]45O)O2)O[C@H](/C(C)=C/C(C)C)[C@H]1C [Moxidectin, moxidectin, reference compound] | 18 ± 9.1 | 0.003 | 

Continued, in another order:

Row | IC50 [1, 4] [µM] | IC50 [2, 5] [µM] | SMILES | also measured
14 | > 40 | > 40 | COc1ccccc1C#Cc1ccc(-c2ccn[nH]2)cc1 [Compound 6] | 
15 | 12 | 3.7 ± 1.9 | Fc1ccccc1C#Cc1ccc(-c2ccn[nH]2)cc1 [Compound 8] | IC50 [1, 6]: 13 ± 4.5 µM
16 | 4.8 ± 0.7 | > 40 | Clc1ccccc1C#Cc1ccc(-c2ccn[nH]2)cc1 [Compound 9] | 
17 | 8.7 ± 2.5 | > 40 | C(#Cc1ccccn1)c1ccc(-c2ccn[nH]2)cc1 [Compound 10] | Worm motility IC50 ± SD, C. elegans young adults [2, 7]: loss of compound activity
18 | 13 ± 5.7 | > 40 | Cc1cccc(C#Cc2ccc(-c3ccn[nH]3)cc2)c1 [Compound 11] | Worm motility IC50 ± SD, C. elegans young adults [2, 7]: lost activity
19 | 6.8 ± 0.1 | > 40 | C(#Cc1cccnc1)c1ccc(-c2ccn[nH]2)cc1 [Compound 16] | reduction of worm motility, adult females of H. contortus [3, 8]: 15%; Worm motility IC50 ± SD, H. contortus xL3s [1, 6]: equipotent; Worm motility IC50 ± SD, C. elegans young adults [2, 7]: loss of activity
20 | 29 ± 12 | 25 ± 7 | Oc1cccc(C#Cc2ccc(-c3ccn[nH]3)cc2)c1 [Compound 17] | 
21 | 2 ± 0.1 | > 40 | Cc1ccc(C#Cc2ccc(-c3ccn[nH]3)cc2)cc1 [Compound 18] | reduction of worm motility, adult females of H. contortus [3, 8]: 15%; fold increased activity compared to UMW-9729, H. contortus larvae [1]: 3 fold; Worm motility IC50 ± SD, C. elegans young adults [2, 7]: inactive
22 | > 40 | > 40 | COc1ccc(C#Cc2ccc(-c3ccn[nH]3)cc2)cc1 [Compound 19] | Worm motility IC50 ± SD, H. contortus xL3s [1, 6]: inactive
23 | > 40 | > 40 | C(#Cc1ccc(-c2ccn[nH]2)cc1)c1ccncc1 [Compound 22] | Worm motility IC50 ± SD, H. contortus xL3s [1, 6]: inactive
24 | 24 ± 8.5 | > 40 | C(#Cc1ccc(-c2ccn[nH]2)cn1)c1ccccc1 [Compound 24] | Worm motility IC50 ± SD, C. elegans young adults [2, 7]: loss in activity
25 | > 40 | > 40 | C(#Cc1cccc(-c2ccn[nH]2)c1)c1ccccc1 [Compound 26, 5-(3-(phenylethynyl)phenyl)-1H-pyrazole] | Worm motility IC50 ± SD, H. contortus xL3s [1, 6]: complete loss of activity
26 | 5.1 ± 0.5 | 18 ± 11 | Cc1nc(-c2ccc(C#Cc3ccccc3)cc2)no1 [Compound 32] | 

— PMC10992699, “Comparative structure activity and target exploration of 1,2-diphenylethynes in Haemonchus contortus and Caenorhabditis elegans” (International Journal for Parasitology: Drugs and Drug …, 2024)
